Data: US8957114B2, “Formulations, salts and polymorphs of transnorsertraline and uses thereof” (Sunovion Pharmaceuticals Inc., priority 2009, dated 2015)
Read-outs that look alike come from different tables or passages of the source.

Columns and labels:
[1] = VTI moisture sorption isotherm (hygroscopicity); assay type: physicochemical; conditions: 25° C.
Protocol: (§1) Each salt was analyzed by coulometric titration using an EM Scientific Aquastar C3000 titrator to determine water content. […] Each salt was analyzed using a Perkin Elmer TGA 7 Thermal Gravimetric Analyzer (TGA). […] Moisture sorption isotherms for each salt were generated using the VTI SGA-100 Symmetric Vapor Sorption Analyzer. Samples were run as received without pre-analysis drying. Equilibrium criteria were the lesser of 0.01 wt % change in 5 minutes or 180 minutes at each relative humidity (RH) step. […] Analysis was repeated for each sample in consecutive analyses (sample was not removed from analyzer). Sample sizes ranged from 18 mg to 35 mg.

[2] = Moisture content by coulometric Karl Fischer titration (KF); assay type: physicochemical
Protocol: as §1

[3] = Thermal gravimetric analysis (TGA) weight loss; assay type: physicochemical; conditions: heated 25° C. to 325° C. at 10° C./min
Protocol: The sixteen salts of transnorsertraline of Example 6.14 were analyzed for moisture content and hygroscopicity. Each salt was analyzed by coulometric titration using an EM Scientific Aquastar C3000 titrator to determine water content. Sample size ranged from 18 mg to 134 mg. Each salt was analyzed using a Perkin Elmer TGA 7 Thermal Gravimetric Analyzer (TGA). […] Moisture sorption isotherms for each salt were generated using the VTI SGA-100 Symmetric Vapor Sorption Analyzer. Samples were run as received without pre-analysis drying. Equilibrium criteria were the lesser of 0.01 wt % change in 5 minutes or 180 minutes at each relative humidity (RH) step. Temperature was fixed at 25° C. and the relative humidity steps (25 to 95% to 25%) were in 5% increments. Analysis was repeated for each sample in consecutive analyses (sample was not removed from analyzer). Sample sizes ranged from 18 mg to 35 mg.

[4] = Solubility of transnorsertraline salts in de-ionized water (HPLC); conditions: for Solubility in Freebase Equivalents mgA/mL: de-ionized water, ambient, shaken up to nine days until equilibrium; for pH: saturated solution in de-ionized water
Protocol: For each salt, saturated solutions with excess solids in deionized water were prepared in 20 mL clear glass scintillation vials with screw caps. All samples were shaken at 300 rpm at ambient conditions for up to nine days until equilibrium was achieved. Solubility was determined using a HPLC method (Table 5).

[5] = Solubility of transnorsertraline salts in aqueous buffer systems (SGF, acetate buffer pH 4.5, SIF; HPLC); assay type: physicochemical
Protocol: Saturated solutions with excess solids were prepared in 20 mL clear glass scintillation vials. Simulated gastric fluid (pH 1.0, ˜0.1N HCl, 0.03M NaCl, no enzymes), simulated intestinal fluid (pH 6.8, 0.05M KH2PO4, ˜0.02N NaOH, no enzymes), and acetate buffer (pH 4.5, 0.02M sodium acetate, 0.03M acetic acid) were prepared in accordance with USP28 (USP28 Test Solutions p2855, Volumetric Solutions p2863). […] Solubility was determined using a HPLC method.

[6] = Open dish excipient compatibility study Set 1a/1b (Active 1 with single excipients), 40° C./75% RH, 3 weeks, % impurities; assay type: physicochemical
Protocol: A Zorban SB-CN […], 25 cm×4.6 mm analytical column using a 0.05% trifluoroacetic acid in a 80:20 water:acetonitrile solution (Mobile Phase A) followed by a 0.05% trifluoroacetic acid in a 15:85 water:acetonitrile solution (Mobile Phase B) was used. Column temperature: 30° C. The flow rate: 1.0 mL/min. Injection volume: 50 μL. Wavelength: 220 nm. Minimum run time: 50 min (15 min delay). Mobile Phase gradient: […]
Transnorsertraline HCl (1) (“Active 1”) was mixed with each excipient present in 1 mg capsule strength respectively. The samples contained two different ratios (1:1 and as in the 1 mg capsules) of active and excipients.

[7] = repeated consecutive analysis (second line)
[8] = 0.05M Acetate Buffer (pH 4.5), ambient, up to nine days
[9] = Simulated Gastric Fluid (no enzymes), ambient, up to nine days
[10] = Simulated Intestinal Fluid (pH 6.8, no enzymes), ambient, up to nine days
[11] = saturated solution in 0.05M Acetate Buffer (pH 4.5)
[12] = saturated solution in Simulated Gastric Fluid
[13] = saturated solution in Simulated Intestinal Fluid
[14] = first analysis, listed as Acetate lot 1
[15] = first analysis, listed as Acetate lot 2
[16] = first analysis, listed as Acetate lot 3
[17] = repeated consecutive analysis (second line), listed as Acetate lot 1
[18] = repeated consecutive analysis (second line), listed as Acetate lot 2
[19] = repeated consecutive analysis (second line), listed as Acetate lot 3
[20] = Set 1a, active:excipient 1:1, open dish 40° C./75% RH
[21] = Set 1b, active:excipient ratio as in 1 mg capsules, open dish 40° C./75% RH

Row | VTI Desorp. (% wt loss 95 to 25% RH) ([1]; first analysis) | VTI Adsorp. (% wt gain 25 to 95% RH) [1, 7] | VTI Desorp. (% wt loss 95 to 25% RH) [1, 7] | Molecule | VTI Adsorp. (% wt gain 25 to 95% RH) ([1]; first analysis) | Initial KF (% H2O) [2] | TGA (% wt loss) [3] | pH [4] | pH [5, 11] | pH [5, 12] | pH [5, 13] | further results
1 | – | – | – | N[C@@H]1CC[C@@H](c2ccc(Cl)c(Cl)c2)c2ccccc21.O=C1CC[C@@H](C(=O)O)N1 | 17.28 % wt gain | 0.10 % H2O | – | – | – | – | – | –
2 | 9.51 % wt loss | 7.25 % wt gain | – | O=S(=O)(O)O [Sulfate] | 10.19 % wt gain | 3.34 % H2O | 4.20 % wt loss | – | – | – | – | –
3 | 0.10 % wt loss | 0.08 % wt gain | 0.07 % wt loss | Benzoate | 0.10 % wt gain | 0.27 % H2O | 0.05 % wt loss | – | – | – | – | –
4 | 3.96 % wt loss | 3.24 % wt gain | 3.61 % wt loss | Citrate | 2.59 % wt gain | 0.31 % H2O | – | – | – | – | – | –
5 | 1.36 % wt loss | 1.37 % wt gain | – | L-tartrate | 3.52 % wt gain | 0.62 % H2O | – | 2.63 | 4.58 | 1.24 | 6.73 | –
6 | 1.37 % wt loss | 2.14 % wt gain | 1.20 % wt loss | Phosphate | 3.00 % wt gain | 0.16 % H2O | – | 3.27 | 4.55 | 1.24 | 6.49 | Solubility in Freebase Equivalents mgA/mL ([5]; pH 1): <0.01 mgA/mL; Solubility in Freebase Equivalents mgA/mL ([5]; pH 4.5): 2.63 mgA/mL; Solubility in Freebase Equivalents mgA/mL ([5]; pH 6.8): 0.27 mgA/mL
7 | 0.08 % wt loss | 0.08 % wt gain | 0.09 % wt loss | Transnorsertraline Acetate | 0.07 % wt gain | 0.03 % H2O | 0.53 % wt loss | 6.31 | 4.79 | 1.26 | 6.63 | TGA (% wt loss) ([3]; listed as Acetate lot 1): 0.43 % wt loss; VTI Adsorp. (% wt gain 25 to 95% RH) [1, 14]: 0.07 % wt gain; VTI Desorp. (% wt loss 95 to 25% RH) [1, 14]: 0.08 % wt loss; VTI Adsorp. (% wt gain 25 to 95% RH) [1, 15]: 0.22 % wt gain; VTI Desorp. (% wt loss 95 to 25% RH) [1, 15]: 0.23 % wt loss; VTI Adsorp. (% wt gain 25 to 95% RH) [1, 16]: 0.33 % wt gain; VTI Desorp. (% wt loss 95 to 25% RH) [1, 16]: 0.38 % wt loss; VTI Adsorp. (% wt gain 25 to 95% RH) [1, 17]: 0.08 % wt gain; VTI Desorp. (% wt loss 95 to 25% RH) [1, 17]: 0.09 % wt loss; VTI Adsorp. (% wt gain 25 to 95% RH) [1, 18]: 0.23 % wt gain; VTI Desorp. (% wt loss 95 to 25% RH) [1, 18]: 0.23 % wt loss; VTI Adsorp. (% wt gain 25 to 95% RH) [1, 19]: 0.35 % wt gain; VTI Desorp. (% wt loss 95 to 25% RH) [1, 19]: 0.35 % wt loss; Solubility in Freebase Equivalents mgA/mL ([5]; pH 1): 0.07 mgA/mL; Solubility in Freebase Equivalents mgA/mL ([5]; pH 4.5): 3.12 mgA/mL; Solubility in Freebase Equivalents mgA/mL ([5]; pH 6.8): 0.25 mgA/mL; Initial KF (% H2O) ([2]; listed as Acetate lot 1): 0.03 % H2O; Initial KF (% H2O) ([2]; listed as Acetate lot 2): 0.07 % H2O; Initial KF (% H2O) ([2]; listed as Acetate lot 3): 0.05 % H2O
8 | – | – | – | Transnorsertraline HCl [active 1] | – | – | – | – | – | – | – | % Active [6, 20]: 99.68%; % Impurities, peak RRT 0.764 [6, 20]: 0.05%; % Impurities, peak RRT 0.862, Synthetic Impurity 1 [6, 20]: 0.04%; % Impurities, peak RRT 0.885, Synthetic Impurity 2 [6, 20]: 0.05%; % Impurities, peak RRT 1.07, cis-diastereomer [6, 20]: 0.12%; % Impurities, peak RRT 1.386 [6, 20]: 0.07%; % Total Impurities [6, 20]: 0.33%; impurities formed due to the presence of excipients ([6]; Set 1a, ratio of active to excipient 1:1, 40° C./75% RH): no appreciable impurities formed; % Active [6, 21]: 99.68%; % Impurities, peak RRT 0.764 [6, 21]: 0.05%; % Impurities, peak RRT 0.862, Synthetic Impurity 1 [6, 21]: 0.04%; % Impurities, peak RRT 0.885, Synthetic Impurity 2 [6, 21]: 0.05%; % Impurities, peak RRT 1.07, cis-diastereomer [6, 21]: 0.12%; % Impurities, peak RRT 1.386 [6, 21]: 0.07%; % Total Impurities [6, 21]: 0.33%

Row | Molecule | VTI Desorp. (% wt loss 95 to 25% RH) ([1]; first analysis) | VTI Adsorp. (% wt gain 25 to 95% RH) [1, 7] | VTI Desorp. (% wt loss 95 to 25% RH) [1, 7] | VTI Adsorp. (% wt gain 25 to 95% RH) ([1]; first analysis) | Initial KF (% H2O) [2] | TGA (% wt loss) [3] | pH [4] | pH [5, 11] | pH [5, 12] | pH [5, 13] | further results
9 | Fumarate | 0.17 % wt loss | 0.17 % wt gain | 0.16 % wt loss | 0.18 % wt gain | 0.40 % H2O | 0.81 % wt loss | 5.30 | 4.60 | 1.25 | 6.63 | Solubility in Freebase Equivalents mgA/mL [4]: 0.52 mgA/mL; Solubility in Freebase Equivalents mgA/mL [5, 8]: 0.69 mgA/mL; Solubility in Freebase Equivalents mgA/mL [5, 9]: <0.01 mgA/mL; Solubility in Freebase Equivalents mgA/mL [5, 10]: 0.30 mgA/mL
10 | Maleate | 0.09 % wt loss | 0.08 % wt gain | 0.08 % wt loss | 0.10 % wt gain | 0.06 % H2O | 0.02 % wt loss | 3.98 | 4.52 | 1.25 | 6.47 | Solubility in Freebase Equivalents mgA/mL [4]: 1.88 mgA/mL; Solubility in Freebase Equivalents mgA/mL [5, 8]: 1.23 mgA/mL; Solubility in Freebase Equivalents mgA/mL [5, 9]: 0.08 mgA/mL; Solubility in Freebase Equivalents mgA/mL [5, 10]: 0.28 mgA/mL
11 | S-mandelate | 3.95 % wt loss | 3.79 % wt gain | 3.02 % wt loss | 3.24 % wt gain | 0.32 % H2O | – | – | – | – | – | –
12 | Succinate | 3.17 % wt loss | – | – | 3.25 % wt gain | 1.03 % H2O | – | 3.89 | 4.50 | 1.27 | 6.46 | –
13 | Tosylate | 0.06 % wt loss | – | – | 0.06 % wt gain | 0.09 % H2O | 0.16 % wt loss | 6.16 | 4.56 | 1.10 | 6.78 | Solubility in Freebase Equivalents mgA/mL [4]: 0.53 mgA/mL; Solubility in Freebase Equivalents mgA/mL [5, 8]: 0.63 mgA/mL; Solubility in Freebase Equivalents mgA/mL [5, 9]: 0.06 mgA/mL; Solubility in Freebase Equivalents mgA/mL [5, 10]: 0.21 mgA/mL
